# Experimental data published in patent US20260176320A1, “MODULATORS OF G-PROTEIN COUPLED RECEPTORS” (priority 2018, published 2026).
# Read-outs that look alike come from different tables or passages of the source. Numbered stars: 1 amine (or outer) side, 2 acyl side, 3 side chain; on linkers, the order of the positions; unused ones are H or OH. Square brackets hold non-standard residues; d marks the D form. Side chains are listed from the residue outwards. Peptide text beside a SMILES is read from it. * marks the point of attachment. γGlu = O=C(O)[C@H](CCC(=O)[*:2])N[*:1]; X2 = O=C(CSCC(=O)*)NCCN1C(=O)CSC1=O; Palmitoyl = CCCCCCCCCCCCCCCC(=O)*; Aib = CC(C)(N)C(=O)O
# Legend:
# GLP-1R = GLP-1R (Homo sapiens, UniProt P43220); test: HitHunter cAMP assay (GLP-1R); assay type: cell-based; settings: for Emax: read-out: (Emax) GLP-1R
# Sequence of GLP-1R (P43220 24-463): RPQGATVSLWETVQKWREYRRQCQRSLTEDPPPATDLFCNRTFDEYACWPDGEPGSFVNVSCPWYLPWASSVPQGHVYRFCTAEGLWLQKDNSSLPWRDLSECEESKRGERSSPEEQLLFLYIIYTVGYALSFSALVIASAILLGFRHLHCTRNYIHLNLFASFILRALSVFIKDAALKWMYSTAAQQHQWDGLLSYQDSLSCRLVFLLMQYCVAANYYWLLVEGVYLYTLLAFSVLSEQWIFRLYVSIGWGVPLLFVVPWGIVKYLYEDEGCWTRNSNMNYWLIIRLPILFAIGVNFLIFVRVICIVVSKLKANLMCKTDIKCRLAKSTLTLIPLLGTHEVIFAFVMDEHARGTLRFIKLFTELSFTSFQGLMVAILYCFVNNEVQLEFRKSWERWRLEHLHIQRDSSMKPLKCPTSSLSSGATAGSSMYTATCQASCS
# Method in brief: (§1)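 Duplicate 22-point, 2-fold agonist titrations applied to receptor-expressing suspension cells in IBMX-containing HBSS; 30 min RT stimulation. Read: luminescent cAMP immunocompetition after O/N dark incubation.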
# GIP-R = molecular target: T1, GIP-R (Homo sapiens, UniProt P48546); test: HitHunter cAMP assay (GIP-R); assay type: cell-based; settings: for Emax: read-out: (Emax) GIP-R
# T1 sequence (P48546 22-466): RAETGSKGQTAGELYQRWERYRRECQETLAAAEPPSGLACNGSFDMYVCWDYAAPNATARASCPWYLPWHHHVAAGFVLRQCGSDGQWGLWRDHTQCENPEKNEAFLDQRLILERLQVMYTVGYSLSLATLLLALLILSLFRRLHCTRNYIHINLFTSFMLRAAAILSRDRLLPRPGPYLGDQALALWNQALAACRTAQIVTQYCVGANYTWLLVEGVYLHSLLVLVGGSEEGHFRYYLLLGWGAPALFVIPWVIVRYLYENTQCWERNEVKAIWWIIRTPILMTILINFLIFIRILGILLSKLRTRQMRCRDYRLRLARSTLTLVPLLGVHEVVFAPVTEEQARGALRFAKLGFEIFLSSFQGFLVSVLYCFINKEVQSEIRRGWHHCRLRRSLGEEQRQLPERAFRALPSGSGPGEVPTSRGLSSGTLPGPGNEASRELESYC
# Method in brief: as §1
# [1] = Table 3A, cAMP, read-out: EC50 GLP-1R/nM
# [2] = Table 3A, cAMP, read-out: EC50 GIP-R/nM
Structure (SMILES),"EC50 (GIP-R; EC50 GIP-R/nM, Table 3, cAMP) [nM]",EC50 (GLP-1R; [1]) [nM],"Emax (GIP-R; Table 3A, cAMP) [%]",EC50 (GIP-R; [2]) [nM],"Emax (GLP-1R; Table 3, cAMP) [%]","Emax (GLP-1R; Table 3A, cAMP) [%]","EC50 (GLP-1R; EC50 GLP-1R/nM, Table 3A, cAMP) [nM]","EC50 (GIP-R; EC50 GIP-R/nM, Table 3A, cAMP) [nM]",also measured
CC[C@H](C)[C@H](NC(=O)[C@H](CO)NC(=O)[C@H](Cc1ccc(O)cc1)NC(=O)[C@H](CC(=O)O)NC(=O)[C@H](CO)NC(=O)[C@@H](NC(=O)[C@H](Cc1ccccc1)NC(=O)[C@@H](NC(=O)CNC(=O)[C@H](CCC(=O)O)NC(=O)CSCC(=O)NCCN(C)C(=O)c1ccccc1)[C@@H](C)O)[C@@H](C)O)C(=O)N[C@@H](Cc1ccc(O)cc1)C(=O)N[C@@H](CC(C)C)C(=O)N[C@@H](CC(=O)O)C(=O)N[C@@H](CCCCN)C(=O)N[C@@H](CCC(N)=O)C(=O)N[C@@H](C)C(=O)N[C@@H](C)C(=O)NC(C)(C)C(=O)N[C@@H](CCC(=O)O)C(=O)N[C@@H](Cc1ccccc1)C(=O)N[C@H](C(=O)N[C@@H](CC(N)=O)C(=O)N[C@@H](Cc1c[nH]c2ccccc12)C(=O)N[C@@H](CC(C)C)C(=O)N[C@@H](CC(C)C)C(=O)N[C@@H](C)C(=O)NCC(=O)NCC(=O)N1CCC[C@H]1C(=O)N[C@@H](CO)C(=O)N[C@@H](CO)C(=O)NCC(=O)N[C@@H](C)C(=O)N1CCC[C@H]1C(=O)N1CCC[C@H]1C(=O)N1CCC[C@H]1C(=O)N[C@@H](CO)C(=O)N[C@@H](CCCCN)C(N)=O)C(C)C [Compound 169],> 1000,–,–,–,–,–,–,–,"EC50 (GLP-1R): 1 to 10 nM; Emax (GLP-1R): 96%; EC50 (GLP-1R; read-out: EC50 GLP-1R/nM, Table 3A, cAMP): 1 to 10 nM; Emax at 1 µM (GIP-R; read-out: (Emax) GIP-R at 1 μM): 6 to 8%; EC50 (GIP-R; read-out: EC50 GIP-R/nM, Table 3A, cAMP): > 1000 nM"
CCCCCCCCCCCCCCCC(=O)N[C@@H](CCC(=O)NCCCC[C@H](NC(=O)[C@H](CO)NC(=O)[C@@H]1CCCN1C(=O)[C@@H]1CCCN1C(=O)[C@@H]1CCCN1C(=O)[C@H](C)NC(=O)CNC(=O)[C@H](CO)NC(=O)[C@H](CO)NC(=O)[C@@H]1CCCN1C(=O)CNC(=O)CNC(=O)[C@H](C)NC(=O)[C@H](CC(C)C)NC(=O)[C@H](CC(C)C)NC(=O)[C@H](Cc1c[nH]c2ccccc12)NC(=O)[C@H](CC(N)=O)NC(=O)[C@@H](NC(=O)[C@H](Cc1ccccc1)NC(=O)[C@H](CCC(=O)O)NC(=O)C(C)(C)NC(=O)[C@H](C)NC(=O)[C@H](C)NC(=O)[C@H](CCC(N)=O)NC(=O)[C@H](CCCCN)NC(=O)[C@H](CC(=O)O)NC(=O)[C@H](CC(C)C)NC(=O)[C@H](Cc1ccc(O)cc1)NC(=O)[C@@H](NC(=O)[C@H](CO)NC(=O)[C@H](Cc1ccc(O)cc1)NC(=O)[C@H](CC(=O)O)NC(=O)[C@H](CO)NC(=O)[C@@H](NC(=O)[C@H](Cc1ccccc1)NC(=O)[C@@H](NC(=O)CNC(=O)[C@H](CCC(=O)O)NC(=O)C(C)(C)C(=O)NCCN1CCOCC1=O)[C@@H](C)O)[C@@H](C)O)[C@@H](C)CC)C(C)C)C(N)=O)C(=O)O [Compound 257],–,< 0.1,40,10 to 100,–,–,–,–,–
CC[C@H](C)[C@H](NC(=O)[C@H](CO)NC(=O)[C@H](Cc1ccc(O)cc1)NC(=O)[C@H](CC(=O)O)NC(=O)[C@H](CO)NC(=O)[C@@H](NC(=O)[C@H](Cc1ccccc1)NC(=O)[C@@H](NC(=O)CNC(=O)[C@H](CCC(=O)O)NC(=O)CS(=O)(=O)CC(=O)NCCN1C(=O)CSC1=O)[C@@H](C)O)[C@@H](C)O)C(=O)N[C@@H](Cc1ccc(O)cc1)C(=O)N[C@@H](CC(C)C)C(=O)N[C@@H](CC(=O)O)C(=O)N[C@@H](CCCCN)C(=O)N[C@@H](CCC(N)=O)C(=O)N[C@@H](C)C(=O)N[C@@H](C)C(=O)NC(C)(C)C(=O)N[C@@H](CCC(=O)O)C(=O)N[C@@H](Cc1ccccc1)C(=O)N[C@H](C(=O)N[C@@H](CC(N)=O)C(=O)N[C@@H](Cc1c[nH]c2ccccc12)C(=O)N[C@@H](CC(C)C)C(=O)N[C@@H](CC(C)C)C(=O)N[C@@H](C)C(=O)NCC(=O)NCC(=O)N1CCC[C@H]1C(=O)N[C@@H](CO)C(=O)N[C@@H](CO)C(=O)NCC(=O)N[C@@H](C)C(=O)N1CCC[C@H]1C(=O)N1CCC[C@H]1C(=O)N1CCC[C@H]1C(=O)N[C@@H](CO)C(=O)N[C@@H](CCCCN)C(N)=O)C(C)C [Compound 168],–,1 to 10,–,> 1000,92,92,–,–,"EC50 (GLP-1R; Table 3, cAMP, read-out: EC50 GLP-1R/nM): 1 to 10 nM; EC50 (GIP-R; Table 3, cAMP, read-out: EC50 GIP-R/nM): > 1000 nM; Emax at 1 µM (GIP-R; read-out: (Emax) GIP-R at 1 μM, Table 3, cAMP, at 1 μM): 6 to 14%"
CCCCCCCCCCCCCCCC(=O)N[C@@H](CCC(=O)NCCCC[C@H](NC(=O)[C@H](CO)NC(=O)[C@@H]1CCCN1C(=O)[C@@H]1CCCN1C(=O)[C@@H]1CCCN1C(=O)[C@H](C)NC(=O)CNC(=O)[C@H](CO)NC(=O)[C@H](CO)NC(=O)[C@@H]1CCCN1C(=O)CNC(=O)CNC(=O)[C@H](C)NC(=O)[C@H](CC(C)C)NC(=O)[C@H](CC(C)C)NC(=O)[C@H](Cc1c[nH]c2ccccc12)NC(=O)[C@H](CC(N)=O)NC(=O)[C@@H](NC(=O)[C@H](Cc1ccccc1)NC(=O)[C@H](CCC(=O)O)NC(=O)C(C)(C)NC(=O)[C@H](C)NC(=O)[C@H](C)NC(=O)[C@H](CCC(N)=O)NC(=O)[C@H](CCCCN)NC(=O)[C@H](CC(=O)O)NC(=O)[C@H](CC(C)C)NC(=O)[C@H](Cc1ccc(O)cc1)NC(=O)[C@@H](NC(=O)[C@H](CO)NC(=O)[C@H](Cc1ccc(O)cc1)NC(=O)[C@H](CC(=O)O)NC(=O)[C@H](CO)NC(=O)[C@@H](NC(=O)[C@H](Cc1ccccc1)NC(=O)[C@@H](NC(=O)CNC(=O)[C@H](CCC(=O)O)NC(=O)CSCC(=O)NCCN1C(=O)c2cc3ccccc3cc2C1=O)[C@@H](C)O)[C@@H](C)O)[C@@H](C)CC)C(C)C)C(N)=O)C(=O)O [Compound 249],–,–,105,–,–,101,10 to 100,1 to 10,–
CCCCCCCCCCCCCCCC(=O)N[C@@H](CCC(=O)NCCCC[C@H](NC(=O)[C@H](CC(=O)O)NC(=O)[C@H](CO)NC(=O)[C@@H](NC(=O)[C@H](Cc1ccccc1)NC(=O)[C@@H](NC(=O)CNC(=O)[C@H](CCC(=O)O)NC(=O)CSCC(=O)NCCN1C(=O)CSC1=O)[C@@H](C)O)[C@@H](C)O)C(=O)N[C@@H](CO)C(=O)N[C@H](C(=O)N[C@@H](Cc1ccc(O)cc1)C(=O)N[C@@H](CC(C)C)C(=O)N[C@@H](CC(=O)O)C(=O)N[C@@H](CCCCN)C(=O)N[C@@H](CCC(N)=O)C(=O)N[C@@H](C)C(=O)N[C@@H](C)C(=O)NC(C)(C)C(=O)N[C@@H](CCC(=O)O)C(=O)N[C@@H](Cc1ccccc1)C(=O)N[C@H](C(=O)N[C@@H](CC(N)=O)C(=O)N[C@@H](Cc1c[nH]c2ccccc12)C(=O)N[C@@H](CC(C)C)C(=O)N[C@@H](CC(C)C)C(=O)N[C@@H](C)C(=O)NCC(=O)NCC(=O)N1CCC[C@H]1C(=O)N[C@@H](CO)C(=O)N[C@@H](CO)C(=O)NCC(=O)N[C@@H](C)C(=O)N1CCC[C@H]1C(=O)N1CCC[C@H]1C(=O)N1CCC[C@H]1C(=O)N[C@@H](CO)C(=O)N[C@@H](CCCCN)C(N)=O)C(C)C)[C@@H](C)CC)C(=O)O [Compound 201] (X2-EGTFTSDK([γGlu-Palmitoyl])SIYLDKQAA[Aib]EFVNWLLAGGPSSGAPPPSK-NH2),–,1 to 10,105,1 to 10,–,99,–,–,–
CCCCCCCCCCCCCCCC(=O)N[C@@H](CCC(=O)NCCCC[C@H](NC(=O)[C@H](CO)NC(=O)[C@@H]1CCCN1C(=O)[C@@H]1CCCN1C(=O)[C@@H]1CCCN1C(=O)[C@H](C)NC(=O)CNC(=O)[C@H](CO)NC(=O)[C@H](CO)NC(=O)[C@@H]1CCCN1C(=O)CNC(=O)CNC(=O)[C@H](C)NC(=O)[C@H](CC(C)C)NC(=O)[C@H](CC(C)C)NC(=O)[C@H](Cc1c[nH]c2ccccc12)NC(=O)[C@H](CC(N)=O)NC(=O)[C@@H](NC(=O)[C@H](Cc1ccccc1)NC(=O)[C@H](CCC(=O)O)NC(=O)C(C)(C)NC(=O)[C@H](C)NC(=O)[C@H](C)NC(=O)[C@H](CCC(N)=O)NC(=O)[C@H](CCCCN)NC(=O)[C@H](CC(=O)O)NC(=O)[C@H](CC(C)C)NC(=O)[C@H](Cc1ccc(O)cc1)NC(=O)[C@@H](NC(=O)[C@H](CO)NC(=O)[C@H](Cc1ccc(O)cc1)NC(=O)[C@H](CC(=O)O)NC(=O)[C@H](CO)NC(=O)[C@@H](NC(=O)[C@H](Cc1ccccc1)NC(=O)[C@@H](NC(=O)CNC(=O)[C@H](CCC(=O)O)NC(=O)CSCC(=O)NCCN1C(=O)[C@H]2CCC[C@H]2C1=O)[C@@H](C)O)[C@@H](C)O)[C@@H](C)CC)C(C)C)C(N)=O)C(=O)O [Compound 103],1 to 10,–,68,–,95,95,10 to 100,1 to 10,"EC50 (GLP-1R; EC50 GLP-1R/nM, Table 3, cAMP): 10 to 100 nM; Emax (GIP-R; Table 3, cAMP): 68%"
